{"source": "paper PMC9322052", "about": "“Synthesis and Biological Activity Screening of Newly Synthesized Trimethoxyphenyl-Based Analogues as Potential Anticancer Agents” (Molecules, 2022)", "key": {"[1]": {"system": "hepatocellular carcinoma HepG2 cell line", "assay": "MTT cytotoxicity assay, HepG2", "assay_type": "cell-based, human", "details": "24 h treatment, mean ± SE", "description": "All the newly synthesized analogs were evaluated for their in vitro cytotoxicity against the hepatocellular carcinoma HepG2 cell line. Podo was utilized as a reference control in the current study. […] The N-phenyl triazinone derivative 9 was further investigated for its cytotoxic effects against normal liver cell line HL-7702.\nMTT colorimetric assay was carried out to investigate the impact of the newly synthesized compounds 2–11 on hepatocellular carcinoma (HepG2) and normal liver cell line (HL-7702) cell lines. See Section 3.3.1 in Supplementary Material.\n3.3.1. Cytotoxic activity evaluation\nTo measure the cytotoxic activity of the synthesized derivatives 2a-11 in hepatocel-lular carcinoma (HepG2) cell line (ATCC Cat No. HB-8065) as well as normal human liver cell line HL-7702 (ATCC Cat. No. 77402), cell viability assay was assessed using MTT assay method. Cells at density of 1 x 104 were seeded in a 96-well plate at 37 °C for 24 h under 5% CO2. After incubation, the cells were treated with different concentrations of the test compounds 2a-11 and incubated for 24 h, then 20 μl of MTT solution at 5 mg/mL was applied and incubated for 4 h at 37 °C. Dimethyl sulphoxide (DMSO) in volume of 100 µl was added to each well to dissolve the purple formazan that had formed. The color inten-sity of the formazan product, which represents the growth condition of the cells, is quan-tified by using an ELISA plate reader (EXL 800, USA) at 570 nm absorbance. The experi-mental conditions were carried out with at least three replicates, and the experiments were repeated at least three times.\n3.3.2. Tubulin inhibitions Assay\nCompounds 9, 10 and 11 were evaluated for their tubulin inhibitory activity levels according to the manufacturer’s instructions using # abcam Human Beta-tubulin simplestep […]\n3.3.3. Cell cycle analysis of compound 9\nCell cycle analysis in HepG2 cells was investigated using fluorescent Annexin V-FITC/ PI detection kit (BioVision EZCellTM Cell Cycle Analysis Kit Catalog #K920) by flow cytometry assay. HepG2 cells at a density of 2 × 10^5 per well were harvested and washed twice in PBS. After that, the cells were incubated at 37 °C and 5% CO2. […] Afterward, medium was stained with DNA flu-orochrome PI for 15 min at 37 °C. The samples were immediately analyzed using Facs Calibur flow cytometer (Becton and Dickinson, Heidelberg, Germany).\n3.3.4. Apoptosis assay for compound 9\nApoptosis in HepG2 cells was investigated using fluorescent Annexin V-FITC/ PI de-tection kit (BioVision Annexin V-FITC Apoptosis Detection Kit, Catalog #: K101) by flow cy-tometry assay. HepG2 cells at a density of 2 × 10^5 per well were treated with compound 9 at its IC50 (μM) for 48 h, then the cells were harvested and stained with Annexin V-FITC/ PI dye for 15 min in the dark at 37 °C. The samples were immediately analyzed using FACS Calibur flow cytometer (Becton and Dickinson, Heidelberg, Germany).\n3.3.5. Measurement of mitochondrial membrane potential (MMP) for compound 9 MMP was measured by FACS analysis using abcam ab113852TMRE Mitochondrial Membrane Potential Assay Kit with DiOC2(3) staining using MitoProbe™ DiOC2(3) Assay Kit for Flow Cytometry (M34150). After treatment with compound 9 at its IC50 concentra-tion, cells were stained with DiOC2(3) dye for 30 min in the incubator, then harvested and washed with PBS. DiOC2(3)-stained cells were represented with Annexin binding buffer and incubated at 37 °C for 15 min. The samples were immediately analyzed using cell […]\n3.3.6. Effect on p53, Bax and Bcl-2 p53, Bax and Bcl2 enzyme activities in HepG2 cells were detected in the presence of com-pound 9 at its IC50 concentration (μM). The levels of the tumor suppressor gene p53, apoptotic markers Bax as well as the anti-apoptotic marker Bcl-2 were assessed using p53 ELISA kit, Human Bax ELISA kit and Bcl-2 Elisa kit. […]"}}, "data": [{"smiles": "COc1ccc(C(=O)N/C(=C\\c2cc(OC)c(OC)c(OC)c2)C(=O)NNc2ccccc2)cc1OC", "note": "(hydrate or solvate) [Compound 5, (Z)-3,4-Dimethoxy-N-(3-oxo-3-(2-Phenylhydrazinyl)-1-(3,4,5-Trimethoxyphenyl)prop-1-en-2-yl)benzamide]", "values": [{"measurement": "melting point", "result": "248 to 250", "unit": "°C"}]}, {"smiles": "COc1ccc(NC(=O)/C(=C/c2cc(OC)c(OC)c(OC)c2)NC(=O)c2ccc(OC)c(OC)c2)cc1", "note": "[Compound 4c, (Z)-3,4-Dimethoxy-N-(3-(4-Methoxyphenylamino)-3-oxo-1-(3,4,5-Trimethoxyphenyl)prop-1-en-2-yl)benzamide]", "values": [{"measurement": "melting point", "result": "248 to 250", "unit": "°C"}, {"measurement": "IC50", "setting": "[1]; Homo sapiens, HepG2, 24 h", "result": "23.7 ± 1.37", "unit": "µM"}]}, {"smiles": "COc1ccc(C(=O)N/C(=C\\c2cc(OC)c(OC)c(OC)c2)C(=O)NCC(=O)O)cc1OC", "note": "[Compound 3a, (Z)-2-(2-(3,4-Dimethoxybenzamido)-3-(3,4,5-Trimethoxyphenyl)acrylamido)acetic Acid]", "values": [{"measurement": "melting point", "result": "248 to 250", "unit": "°C"}, {"measurement": "IC50", "setting": "[1]", "result": "8.13 ± 0.54", "unit": "µM"}, {"measurement": "IC50", "setting": "[1]; Homo sapiens, HepG2, 24 h", "result": "< 10", "unit": "µM"}]}, {"smiles": "COc1ccc(C2=N/C(=C\\c3cc(OC)c(OC)c(OC)c3)C(=O)N2c2ccc(O)cc2)cc1OC", "note": "[Compound 7a, (Z)-2-(3,4-Dimethoxyphenyl)-1-(4-Hydroxyphenyl)-4-(3,4,5-Trimethoxybenzylidene)-1H-Imidazol-5(4H)-one]", "values": [{"measurement": "melting point", "result": "248 to 250", "unit": "°C"}]}, {"smiles": "CCOC(=O)/C(=C/c1cc(OC)c(OC)c(OC)c1)NC(=O)c1ccc(OC)c(OC)c1", "note": "[Compound 2b, (Z)-Ethyl 2-(3,4-Dimethoxybenzamido)-3-(3,4,5-Trimethoxyphenyl)acrylate]", "values": [{"measurement": "melting point", "result": "248 to 250", "unit": "°C"}, {"measurement": "IC50", "setting": "[1]", "result": "11.1 ± 0.77", "unit": "µM"}, {"measurement": "IC50", "setting": "[1]; Homo sapiens, HepG2, 24 h", "result": "< 20", "unit": "µM"}]}, {"smiles": "COc1ccc(C(=O)N/C(=C\\c2cc(OC)c(OC)c(OC)c2)C(=O)Nc2ccc(O)cc2)cc1OC", "note": "[Compound 4b, (Z)-N-(3-(4-Hydroxyphenylamino)-3-oxo-1-(3,4,5-Trimethoxyphenyl)prop-1-en-2-yl)-3,4-Dimethoxybenzamide]", "values": [{"measurement": "melting point", "result": "248 to 250", "unit": "°C"}, {"measurement": "IC50", "setting": "[1]", "result": "17.7 ± 1.1", "unit": "µM"}, {"measurement": "IC50", "setting": "[1]; Homo sapiens, HepG2, 24 h", "result": "< 20", "unit": "µM"}]}, {"smiles": "COc1ccc(C(=O)N/C(=C\\c2cc(OC)c(OC)c(OC)c2)C(=O)Nc2cccc(C)c2)cc1OC", "note": "[Compound 4a, (Z)-3,4-Dimethoxy-N-(3-oxo-3-(M-tolylamino)-1-(3,4,5-Trimethoxyphenyl)prop-1-en-2-yl)benzamide]", "values": [{"measurement": "melting point", "result": "248 to 250", "unit": "°C"}, {"measurement": "IC50", "setting": "[1]; Homo sapiens, HepG2, 24 h", "result": "45.5 ± 2.89", "unit": "µM"}]}, {"smiles": "COc1ccc(N2C(=O)/C(=C/c3cc(OC)c(OC)c(OC)c3)N=C2c2ccc(OC)c(OC)c2)cc1", "note": "[Compound 7b, (Z)-2-(3,4-Dimethoxyphenyl)-1-(4-Methoxyphenyl)-4-(3,4,5-Trimethoxybenzylidene)-1H-Imidazol-5(4H)-one]", "values": [{"measurement": "melting point", "result": "248 to 250", "unit": "°C"}, {"measurement": "IC50", "setting": "[1]", "result": "6.45 ± 0.24", "unit": "µM"}, {"measurement": "IC50", "setting": "[1]; Homo sapiens, HepG2, 24 h", "result": "< 10", "unit": "µM"}]}, {"smiles": "COc1ccc(C(=O)N/C(=C\\c2cc(OC)c(OC)c(OC)c2)C(=O)NNc2ccccc2)cc1OC", "note": "[Compound 5, (Z)-3,4-Dimethoxy-N-(3-oxo-3-(2-Phenylhydrazinyl)-1-(3,4,5-Trimethoxyphenyl)prop-1-en-2-yl)benzamide]", "values": [{"measurement": "IC50", "setting": "[1]", "result": "9.24 ± 0.52", "unit": "µM"}, {"measurement": "IC50", "setting": "[1]; Homo sapiens, HepG2, 24 h", "result": "< 10", "unit": "µM"}]}, {"smiles": "COc1ccc(C(=O)N/C(=C\\c2cc(OC)c(OC)c(OC)c2)C(=O)NNC(=O)c2ccncc2)cc1OC", "note": "[Compound 6, (Z)-N-(3-(2-Isonicotinoylhydrazinyl)-3-oxo-1-(3,4,5-Trimethoxyphenyl)prop-1-en-2-yl)-3,4-Dimethoxybenzamide]", "values": [{"measurement": "melting point", "result": "248 to 250", "unit": "°C"}, {"measurement": "IC50", "setting": "[1]", "result": "8.74 ± 0.57", "unit": "µM"}, {"measurement": "IC50", "setting": "[1]; Homo sapiens, HepG2, 24 h", "result": "< 10", "unit": "µM"}]}, {"smiles": "COc1ccc(C(=O)N/C(=C\\c2cc(OC)c(OC)c(OC)c2)C(=O)NC(C)C(=O)O)cc1OC", "note": "(stereo not drawn) [Compound 3b, (Z)-2-(2-(3,4-Dimethoxybenzamido)-3-(3,4,5-Trimethoxyphenyl)acrylamido)propanoic Acid]", "values": [{"measurement": "melting point", "result": "248 to 250", "unit": "°C"}, {"measurement": "IC50", "setting": "[1]", "result": "19.4 ± 1.43", "unit": "µM"}, {"measurement": "IC50", "setting": "[1]; Homo sapiens, HepG2, 24 h", "result": "< 20", "unit": "µM"}]}, {"smiles": "COc1ccc(C2=N/C(=C\\c3cc(OC)c(OC)c(OC)c3)C(=O)NN2C(N)=S)cc1OC", "note": "[Compound 8, (Z)-3-(3,4-Dimethoxyphenyl)-6-oxo-5-(3,4,5-Trimethoxybenzylidene)-5,6-Dihydro-1,2,4-Triazine-2(1H)-Carbothioamide]", "values": [{"measurement": "melting point", "result": "248 to 250", "unit": "°C"}]}]}
